Source: article PMC4407906, “Structure-Guided Engineering of Molinate Hydrolase for the Degradation of Thiocarbamate Pesticides” (PLoS ONE, 2015)

Key:
molinate hydrolase [1] = molecular target: T1, molinate hydrolase (Gulosibacter molinativorax, UniProt G2XLB0); test: UV spectrophotometric molinate depletion at […] nm, […] 2-mercaptoethanol; format: biochemical
T1 construct: gene molA; recombinant protein with a 32 amino acid purification tag

molinate hydrolase [2] = molecular target: T1, molinate hydrolase; test: UV spectrophotometric molinate depletion at […] nm, […] L-cysteine; format: biochemical
molinate hydrolase [3] = molecular target: T1, molinate hydrolase; test: HPLC assay of molinate depletion with purified recombinant enzyme; competitive inhibition fit; format: biochemical
[4] = molecular target: the molecule itself; test: crystal structure; recombinant molinate hydrolase co-crystallised with ZnCl2 (4 or 8 mM), vapour diffusion at 20°C, sodium citrate pH 5.6-6.4, 2-propanol, PEG 4000, glycerol; monoclinic C2 with 8 monomers and orthorhombic with 4 monomers in the asymmetric unit

T1 sequence (G2XLB0 entry or part of it): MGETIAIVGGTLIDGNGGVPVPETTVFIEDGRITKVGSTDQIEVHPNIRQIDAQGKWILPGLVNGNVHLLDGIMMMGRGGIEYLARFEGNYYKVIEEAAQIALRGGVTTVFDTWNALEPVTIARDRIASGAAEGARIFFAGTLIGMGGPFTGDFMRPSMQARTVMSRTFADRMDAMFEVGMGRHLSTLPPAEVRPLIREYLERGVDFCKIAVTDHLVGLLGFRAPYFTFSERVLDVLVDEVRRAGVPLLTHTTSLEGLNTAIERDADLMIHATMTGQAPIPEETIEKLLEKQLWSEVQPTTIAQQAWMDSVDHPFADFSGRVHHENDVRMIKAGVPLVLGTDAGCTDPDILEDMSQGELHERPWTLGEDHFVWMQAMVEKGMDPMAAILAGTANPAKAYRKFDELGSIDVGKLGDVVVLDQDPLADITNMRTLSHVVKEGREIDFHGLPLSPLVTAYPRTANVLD

OCCS [2-mercaptoethanol]
UV spectrophotometric molinate depletion at 220 nm, 3 mM 2-mercaptoethanol (molinate hydrolase [1]): other thiolated compounds, such as β-mercaptoethanol, also inhibited molinate hydrolase

N[C@@H](CS)C(=O)O [L-cysteine]
UV spectrophotometric molinate depletion at 220 nm, 1.5 mM L-cysteine (molinate hydrolase [2]): cysteine also inhibits the enzyme activity, while serine and methionine do not

CCS [ethanethiol]
Ki (molinate hydrolase [3]): 300 µM

B1: recombinant molinate hydrolase (enzyme, Gulosibacter molinativorax ON4T)
chain: GETIAIVGGTLIDGNGGVPVPETTVFIEDGRITKVGSTDQIEVHPNIRQIDAQGKWILPGLVNGNVHLLDGIMMMGRGGIEYLARFEGNYYKVIEEAAQIALRGGVTTVFDTWNALEPVTIARDRIASGAAEGARIFFAGTLIGMGGPFTGDFMRPSMQARTVMSRTFADRMDAMFEVGMGRHLSTLPPAEVRPLIREYLERGVDFCKIAVTDHLVGLLGFRAPYFTFSERVLDVLVDEVRRAGVPLLTHTTSLEGLNTAIERDADLMIHATMTGQAPIPEETIEKLLEKQLWSEVQPTTIAQQAWMDSVDHPFADFSGRVHHENDVRMIKAGVPLVLGTDAGCTDPDILEDMSQGELHERPWTLGEDHFVWMQAMVEKGMDPMAAILAGTANPAKAYRKFDELGSIDVGKLGDVVVLDQDPLADITNMRTLSHVVKEGREIDFHGLPLSPLVTAYPRTANVLD
notes: molinate hydrolase (MolA) from Gulosibacter molinativorax ON4T; 1984 residues expected for 4 monomers (496 each, tag included); One Zn2+ per monomer (occupancy set to 0.4) in the deposited structure; A SeMet derivative (from E. coli B834 (DE3), metal-depleted) was also solved, with the same overall structure; also called MolA; source: E. coli JM109 or B834 (DE3), vector pASKmolA, purified …
stoichiometry N [4]: 4
